Measured values taken from publication PMC2990587, “Central nervous system penetration and enhancement of temozolomide activity in childhood medulloblastoma models by poly(ADP-ribose) polymerase inhibitor AG-014699” (British Journal of Cancer, 2010).
“Also recorded” adds a separate entry of the source.

Legend:
[1] = AG-014447 distribution in plasma, brain and D283Med xenograft of tumour-bearing mice (LC/MS/MS); format: in vivo, mouse; conditions: for AUC in tumour: D283Med xenograft
Method: One or four daily doses of PARP inhibitor AG-014699 (1 mg kg^−1 intraperitoneally (i.p.)) were given to CD-1 nude mice bearing established D283Med xenografts. At 0.5, 2, 6 and 24 h after the initial or fourth daily dose of AG-014699, three animals per time point were bled by cardiac puncture under general anaesthesia, and then killed. Plasma was separated from the blood samples using standard methods and stored at −80°C. The brains and tumours were removed, snap frozen in liquid nitrogen and stored at −80°C before analysis. Blood, tumour and brain tissue were removed from three untreated control animals and processed in the same way.
AG-014699 is the phosphate salt of AG-014447 and rapidly liberates the parent drug following injection. The concentration of AG-014447 was determined in plasma and tissue homogenates (1 : 4 (w v^−1) in PBS) of brain and tumour after protein precipitation with acetonitrile by liquid chromatography/mass spectrometry/mass spectrometry using a turbo ion spray interface and multiple reaction monitoring in the positive ion mode (API 4000; Applied Biosystems, Warrington, Cheshire, UK) and a deuterated internal standard as described previously ([Plummer et al, 2008]). The lower limit of quantitation was 1 ng ml^−1. Plasma pharmacokinetics of AG-014447 were analysed using a non-compartmental approach in WinNonlin version 5.2.

[2] = parameters: method as in Thomas et al, 2007; conditions: ref Thomas et al, 2007; cited from earlier work
[3] = Toxicity (body weight loss) in tumour-bearing mice; format: in vivo, mouse; conditions: daily x5; TMZ 68 mg kg−1 p.o., AG-014699 1 mg kg−1 i.p.
Method: CD-1 nude mice bearing palpable, established subcutaneous D425Med, D283Med and D384Med xenografts were treated with normal saline (control animals), temozolomide (68 mg kg^−1 per os (p.o.)) or AG-014699 (1 mg kg^−1 i.p.) alone or in combination, daily for 5 days (five mice per group). For drug combinations, AG-014699 was administered immediately after administering temozolomide. Tumour volumes, determined from two-dimensional calliper measurements and the equation a^2 × b/2 (where a is the […] of the tumour), were monitored for the experimental period (up to 100 days), and are presented for each group of mice as median relative tumour volume (RTV) values. Relative tumour volume 1 is the tumour volume on the initial day of treatment (day 0), and RTV4 is the tumour volume four times that on the initial day of treatment. Tumour growth delay (TGD) is defined as the time to RTV4 in drug-treated mice compared with the time to RTV4 in control (vehicle alone) mice. Median tumour volume is shown, rather than the mean, as this is generally accepted as the most statistically reliable representation of the average growth rate of tumours in a small group of mice, if a normal distribution of tumour volumes cannot be assumed. Tumour growth delay was calculated as: median time to RTV4 in treated group−median time to RTV4 in control group. Percentage enhancement was calculated as 100 × (TGD TMZ+AG-014699/TGD TMZ alone)−100 ([Calabrese et al, 2004]).

[4] = tested on: D425Med cells; assay: XTT growth inhibition, D425Med; format: cell-based, human; conditions: for GI50: D425Med, temozolomide alone, XTT, 3 days
Method: (§1) Cell growth inhibition was estimated in exponentially growing D425Med, D283Med and D384Med cells in 96-well plates. Seeding densities of 1 × 10^3, 3 × 10^3 and 3 × 10^3 cells, respectively, ensured exponential growth for the duration of the experiment. At 24 h (D384Med) or 48 h (D283Med and D425Med) after seeding, cells were exposed to varying concentrations of temozolomide, as described in the Results, in the presence or absence of 0.4 μM AG-014699, a concentration previously shown to enhance temozolomide cytotoxicity in adult tumour cell lines ([Thomas et al, 2007]). After 3 days (D425Med and D384Med) or 5 days (D283Med) of culture (equivalent to approximately three cell divisions), the cell viability was quantified using an XTT cell proliferation kit assay (Roche, Mannheim, Germany), according to the manufacturer's instructions. Cell growth was expressed as a percentage in relation to DMSO or 0.4 μM AG-014699-alone controls. The concentration of temozolomide, alone or in combination with AG-014699, that inhibited growth by 50% (GI50) was calculated from computer-generated curves (GraphPad Software, San Diego, CA, USA). The potentiation factor50 (PF50) is defined as the ratio of […]. All data were from at least three independent experiments.

[5] = tested on: D384Med cells; assay: XTT growth inhibition, D384Med; format: cell-based, human; conditions: Homo sapiens, D384 Med, 72 h; D384Med; temozolomide alone; XTT, 3 days
Method: as §1

[6] = tested on: D425Med xenografts; assay: Tumour growth inhibition in vivo, D425Med xenografts; parameters: species or system mouse
Text: (§2) All of the in vivo experiments were reviewed and approved by the relevant institutional animal welfare committees, and performed according to national law. Female athymic nude mice (CD1 nu/nu; Charles River, Margate, UK) used for anti-tumour studies were maintained and handled in isolators under specific pathogen-free conditions. […], […] and […] (1 × 10^7 exponentially growing cells per mouse, harvested and implanted in growth media) xenografts were established by sub-cutaneous implantation into CD-1 nude mice. […] Treatment was initiated when sufficient number of mice had established tumours to allow randomisation into treatment groups: day 17 for […], day 26 for […] and day 32 for […]. […] For drug combinations, AG-014699 was administered immediately after administering temozolomide. […] Tumour growth delay (TGD) is defined as the time to RTV4 in drug-treated mice compared with the time to RTV4 in control (vehicle alone) mice. Median tumour volume is shown, rather than the mean, as this is generally accepted as the most statistically reliable representation of the average growth rate of tumours in a small group of mice, if a normal distribution of tumour volumes cannot be assumed. Tumour growth delay was calculated as: median time to RTV4 in treated group-median time to RTV4 in control group.

[7] = tested on: D283Med cells; assay: XTT growth inhibition, D283Med; format: cell-based, human
Method: as §1

[8] = tested on: D384Med xenografts; assay: Tumour growth inhibition in vivo, D384Med xenografts; parameters: species or system mouse; conditions: for Complete regressions: mice with regression/group, transient
Text: as §2

[9] = tested on: D283Med xenografts; assay: Tumour growth inhibition in vivo, D283Med xenografts; parameters: species or system mouse; conditions: for Complete regressions: mice with regression/group
Text: as §2

For `CNCc1ccc(-c2[nH]c3cc(F)cc4c3c2CCNC4=O)cc1` [AG-014447], the “Levels in the brain relative to plasma” value ([1]; 6 h after fourth daily dose 1 mg kg−1 i.p.) was “only marginally greater than plasma levels”, the “Brain level relative to plasma level” value ([1]; 24 h after single dose 1 mg kg−1 i.p.) was “up to 10 fold” and the AUC in tumour ([1]; day 1, 1 mg kg−1 i.p.) was 582.0 µmol·min/L. It also gave an AUC in tumour ([1]; day 4, 1 mg kg−1 i.p. daily) of 509.6 µmol·min/L, an AUC in brain ([1]; day 1, 1 mg kg−1 i.p.) of 37.0 µmol·min/L and an AUC in plasma ([1]; day 1, 1 mg kg−1 i.p.) of 26.4 µmol·min/L. For the same compound, the Plasma half-life ([1]; day 1, 1 mg kg−1 i.p.) was 4.98 h, the AUC in brain ([1]; day 4, 1 mg kg−1 i.p. daily) was 14.7 µmol·min/L and the AUC in plasma ([1]; day 4, 1 mg kg−1 i.p. daily) was 21.9 µmol·min/L. For the same compound, the Plasma half-life ([1]; day 4, 1 mg kg−1 i.p. daily) was 4.23 h, the “Plasma level of AG-014447 at 24 h” value ([1]; first dose AG-014699 1 mg kg−1 i.p., LLOQ 1 ng ml−1) was “below the level of quantitation” and the “c log D” value [2] was 0.7. The pKa [2] was 9.6.

With `Cn1nnc2c(C(N)=O)ncn2c1=O` [temozolomide] the Body weight loss [3] was 5±4%, the “Relative sensitivity to temozolomide (times more sensitive)” value ([4]; D425Med compared with D384Med, in culture) was roughly 25 times and the GI50 [4] was 9.3 ± 7.5 µM. For the same compound, the GI50 ([4]; Homo sapiens, D425 Med, 72 h) was 9 µM, the GI50 [5] was 220 ± 42 µM and the “Median nadir body weight (% starting weight)” value ([6]; D425Med-bearing mice, daily x5, TMZ 68 mg kg−1 p.o., AG-014699 1 mg kg−1 i.p.) was 96 % starting weight. The “Complete tumour regressions (including not sustained)” value ([6]; D425Med, daily x5) was “complete tumour regressions seen in all mice; also recorded: all mice showing complete tumour regressions”, the “Median time to RTV4” value ([6]; D425Med, daily x5, TMZ 68 mg kg−1 p.o., AG-014699 1 mg kg−1 i.p.) was greater than 100 days and the Complete regressions ([6]; D425Med, mice with regression/group, sustained for 100 days) was “two out of five”. For the same compound, the Tumour growth delay ([6]; D425Med, versus control time to RTV4) was greater than 81 days, the “Relative sensitivity to temozolomide (times less sensitive)” value ([7]; D283Med compared with D384Med) was “nearly four times less sensitive” and the “Relative sensitivity to temozolomide (times less sensitive)” value ([7]; D283Med compared with D425Med) was roughly 100 times. For the same compound, the GI50 ([7]; Homo sapiens, D283 Med, 120 h, D283Med, temozolomide alone, XTT, 5 days) was 807 ± 239 µM, the “Median nadir body weight (% starting weight)” value ([8]; D384Med-bearing mice, daily x5, TMZ 68 mg kg−1 p.o., AG-014699 1 mg kg−1 i.p.) was 97 % starting weight and the “Median time to RTV4” value ([8]; D384Med, daily x5, TMZ 68 mg kg−1 p.o., AG-014699 1 mg kg−1 i.p.) was 44.5 days. For the same compound, the Complete regressions ([8]; D384Med) was “one transient complete response”, the Complete regressions ([8]; D384Med, listed as TMZ) was 1/5 and the Tumour growth delay ([8]; D384Med, versus control time to RTV4) was 28.5 days. For the same compound, the “Median nadir body weight (% starting weight)” value ([9]; D283Med-bearing mice, daily x5, TMZ 68 mg kg−1 p.o., AG-014699 1 mg kg−1 i.p.) was 94 % starting weight, the “Median time to RTV4” value ([9]; D283Med, daily x5, TMZ 68 mg kg−1 p.o., AG-014699 1 mg kg−1 i.p.) was 9 days and the Complete regressions ([9]; D283Med) was “no regressions observed in any mice”. For the same compound, the Complete regressions ([9]; D283Med, listed as TMZ) was 0/5 and the Tumour growth delay ([9]; D283Med, versus control time to RTV4) was 2 days.
